Experimental data: patent US10392368B2, “Pyrazolo and triazolo bicyclic compounds as JAK kinase inhibitors” (THERAVANCE BIOPHARMA R&D IP, LLC, priority 2017, dated 2019)
Read-outs that look alike come from different tables or passages of the source.

Tests used:
JAK1 = biological target: T1, JAK1 (Homo sapiens, UniProt P23458); assay: Biochemical JAK1 kinase assay (LanthaScreen); settings: for Ki: read-out: JAK 1 (pKi) (converted)
T1 construct: GST; purchased Life Technologies
Method in brief: (§1)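 TR-FRET readout (520/495 nm) using Tb-labelled pTyr701 antibody after EDTA stop, following 1 h ATP-started phosphorylation of GFP-STAT1 by recombinant GST-JAK. Compounds preincubated 1 h with enzyme and substrate; pIC50 from 4-parameter fit, Cheng-Prusoff gives pKi.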

Tyk2 = biological target: T2, Tyk2 (Homo sapiens, UniProt P29597); assay: Biochemical Tyk2 kinase assay (LanthaScreen); settings: for Ki: read-out: Tyk 2 (pKi) (converted)
T2 construct: GST; purchased Life Technologies
T2 sequence (P29597 whole entry): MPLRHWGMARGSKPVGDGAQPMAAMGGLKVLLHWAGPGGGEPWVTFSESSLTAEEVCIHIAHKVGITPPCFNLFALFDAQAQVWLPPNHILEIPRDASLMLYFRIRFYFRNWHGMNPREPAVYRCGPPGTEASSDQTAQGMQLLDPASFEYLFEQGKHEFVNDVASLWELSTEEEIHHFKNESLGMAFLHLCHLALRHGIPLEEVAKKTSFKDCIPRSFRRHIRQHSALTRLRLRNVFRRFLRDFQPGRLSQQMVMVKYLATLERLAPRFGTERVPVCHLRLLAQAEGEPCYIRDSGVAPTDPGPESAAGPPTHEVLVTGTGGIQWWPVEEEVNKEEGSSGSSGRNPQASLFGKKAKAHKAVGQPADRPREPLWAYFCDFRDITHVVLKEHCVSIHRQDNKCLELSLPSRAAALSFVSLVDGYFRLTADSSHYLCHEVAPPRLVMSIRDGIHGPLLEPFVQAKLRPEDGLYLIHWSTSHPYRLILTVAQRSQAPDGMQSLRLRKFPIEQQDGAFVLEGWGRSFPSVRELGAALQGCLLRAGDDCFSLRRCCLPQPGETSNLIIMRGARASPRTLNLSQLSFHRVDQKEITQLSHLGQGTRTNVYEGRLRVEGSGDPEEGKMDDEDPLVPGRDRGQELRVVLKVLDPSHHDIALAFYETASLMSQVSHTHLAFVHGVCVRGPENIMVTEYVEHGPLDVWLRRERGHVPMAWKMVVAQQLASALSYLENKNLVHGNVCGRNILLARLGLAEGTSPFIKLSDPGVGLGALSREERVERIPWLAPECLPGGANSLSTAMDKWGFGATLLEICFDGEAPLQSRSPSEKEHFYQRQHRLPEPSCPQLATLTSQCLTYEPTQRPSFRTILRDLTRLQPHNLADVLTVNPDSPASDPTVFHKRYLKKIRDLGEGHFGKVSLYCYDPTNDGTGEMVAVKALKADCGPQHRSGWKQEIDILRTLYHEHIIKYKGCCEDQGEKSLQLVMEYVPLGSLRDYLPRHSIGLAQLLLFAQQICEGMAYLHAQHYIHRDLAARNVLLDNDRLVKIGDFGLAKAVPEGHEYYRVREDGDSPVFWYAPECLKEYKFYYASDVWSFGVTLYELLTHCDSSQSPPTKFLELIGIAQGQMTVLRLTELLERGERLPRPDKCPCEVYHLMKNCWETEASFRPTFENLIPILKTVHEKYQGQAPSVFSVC
Method in brief: as §1

[1] = tested on: IL-2 stimulated pSTAT5 in Tall-1 T cells; assay: Cellular JAK3 potency assay: inhibition of IL-2 stimulated pSTAT5 in Tall-1 T cells; assay type: cell-based, human; settings: for IC50: Homo sapiens, read-out: Tall-1 (pIC50) (converted)
Method in brief: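 Tall-1 human T cells (45,000/well) in phenol red-free DMEM with 10% FBS were preincubated with compound 1 h at 37 °C, then stimulated with IL-2 (final 300 ng/ml) for 30 min. Lysate pSTAT5 read by AlphaLisa; IC50 from inhibition curves, reported as pIC50 (mean±SD).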

JAK2 = biological target: T3, JAK2 (Homo sapiens, UniProt O60674); assay: Biochemical JAK2 kinase assay (LanthaScreen); settings: for Ki: read-out: JAK 2 (pKi) (converted)
T3 construct: GST; purchased Life Technologies
T3 sequence (O60674 whole entry): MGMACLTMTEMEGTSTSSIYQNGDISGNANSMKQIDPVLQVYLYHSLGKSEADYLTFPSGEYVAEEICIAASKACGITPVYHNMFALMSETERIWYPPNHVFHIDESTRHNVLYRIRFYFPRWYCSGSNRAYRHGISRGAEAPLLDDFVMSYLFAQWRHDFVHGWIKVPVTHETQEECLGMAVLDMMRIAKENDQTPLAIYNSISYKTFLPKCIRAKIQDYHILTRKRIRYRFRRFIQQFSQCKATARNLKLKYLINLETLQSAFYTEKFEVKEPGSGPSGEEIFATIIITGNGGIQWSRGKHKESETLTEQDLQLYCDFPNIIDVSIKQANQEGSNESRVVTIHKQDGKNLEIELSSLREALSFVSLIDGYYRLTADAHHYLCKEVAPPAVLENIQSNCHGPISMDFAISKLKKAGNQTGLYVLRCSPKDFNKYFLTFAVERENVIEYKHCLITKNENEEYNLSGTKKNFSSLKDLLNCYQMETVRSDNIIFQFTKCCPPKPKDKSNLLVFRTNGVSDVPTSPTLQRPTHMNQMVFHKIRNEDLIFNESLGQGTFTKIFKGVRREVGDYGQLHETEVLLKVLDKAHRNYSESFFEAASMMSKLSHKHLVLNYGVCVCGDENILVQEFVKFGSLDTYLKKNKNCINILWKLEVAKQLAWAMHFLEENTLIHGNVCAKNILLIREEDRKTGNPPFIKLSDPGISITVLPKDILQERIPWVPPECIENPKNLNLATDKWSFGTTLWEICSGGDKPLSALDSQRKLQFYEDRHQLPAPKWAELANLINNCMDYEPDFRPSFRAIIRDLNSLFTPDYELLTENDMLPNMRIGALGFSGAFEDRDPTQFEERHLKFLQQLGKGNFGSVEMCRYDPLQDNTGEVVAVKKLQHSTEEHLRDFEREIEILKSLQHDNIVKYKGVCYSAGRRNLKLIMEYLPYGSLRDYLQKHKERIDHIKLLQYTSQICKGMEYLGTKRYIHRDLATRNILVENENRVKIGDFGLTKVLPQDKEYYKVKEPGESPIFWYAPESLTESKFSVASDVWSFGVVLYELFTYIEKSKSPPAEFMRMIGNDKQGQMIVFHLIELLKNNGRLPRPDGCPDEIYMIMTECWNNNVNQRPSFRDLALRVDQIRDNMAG
Method in brief: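 GST-tagged recombinant JAK2 pre-incubated 1 h at ambient temperature with compound and GFP-STAT1 peptide in HEPES pH 7.5/MgCl2 buffer, then ATP added for a 1 h reaction with 1% DMSO. TR-FRET read after EDTA and Tb-anti-pSTAT1 (pTyr701) addition; IC50 from 4-parameter fit, converted to pKi by Cheng-Prusoff.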

JAK3 = biological target: T4, JAK3 (Homo sapiens, UniProt P52333); assay: Biochemical JAK3 kinase assay (LanthaScreen); parameters: GST; purchased Life Technologies; settings: for Ki: read-out: JAK 3 (pKi) (converted)
T4 sequence (P52333 1-1124): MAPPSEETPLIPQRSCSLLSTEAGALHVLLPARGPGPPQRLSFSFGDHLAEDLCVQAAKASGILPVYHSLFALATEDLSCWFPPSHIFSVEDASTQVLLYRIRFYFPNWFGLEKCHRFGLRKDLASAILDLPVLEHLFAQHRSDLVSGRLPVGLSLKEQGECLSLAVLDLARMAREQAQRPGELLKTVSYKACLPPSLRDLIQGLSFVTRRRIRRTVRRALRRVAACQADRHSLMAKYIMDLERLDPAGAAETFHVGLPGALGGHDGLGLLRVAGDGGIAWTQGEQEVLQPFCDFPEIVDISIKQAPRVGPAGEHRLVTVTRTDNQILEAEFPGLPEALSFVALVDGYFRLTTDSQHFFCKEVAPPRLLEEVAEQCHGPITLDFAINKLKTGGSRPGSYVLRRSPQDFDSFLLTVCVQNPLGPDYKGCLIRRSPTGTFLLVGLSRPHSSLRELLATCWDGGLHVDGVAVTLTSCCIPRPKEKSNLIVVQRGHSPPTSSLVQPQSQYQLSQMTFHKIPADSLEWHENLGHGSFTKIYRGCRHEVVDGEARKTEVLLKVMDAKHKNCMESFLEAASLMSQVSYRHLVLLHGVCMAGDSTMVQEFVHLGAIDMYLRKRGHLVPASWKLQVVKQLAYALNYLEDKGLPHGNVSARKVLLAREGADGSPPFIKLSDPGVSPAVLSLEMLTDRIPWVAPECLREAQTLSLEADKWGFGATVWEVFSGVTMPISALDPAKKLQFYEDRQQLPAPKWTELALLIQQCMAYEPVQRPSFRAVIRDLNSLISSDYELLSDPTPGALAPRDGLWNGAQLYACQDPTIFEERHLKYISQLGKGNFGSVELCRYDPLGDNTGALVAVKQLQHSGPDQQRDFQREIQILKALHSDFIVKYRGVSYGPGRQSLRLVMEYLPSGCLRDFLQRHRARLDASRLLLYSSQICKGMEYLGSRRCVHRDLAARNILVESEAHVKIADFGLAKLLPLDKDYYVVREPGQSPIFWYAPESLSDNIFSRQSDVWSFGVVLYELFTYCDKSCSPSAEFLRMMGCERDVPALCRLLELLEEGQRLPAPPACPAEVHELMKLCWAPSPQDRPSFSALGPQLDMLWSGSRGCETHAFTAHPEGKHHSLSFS
Method in brief: as §1

[2] = TALL-1, IL-2 stimulated pSTAT5 in Tall-1 T cells
[3] = selectivity: difference of pKi JAK3 and pKi JAK1
[4] = IL-2 stimulated pSTAT5, Tall-1 T cells
[5] = selectivity JAK3 over JAK1, difference of pKi
[6] = IL-2 stimulated pSTAT5 in Tall-1 T cells
[7] = TALL-1, IL-2 stimulated pSTAT5, Tall-1 T cells

T1 sequence (P23458 whole entry): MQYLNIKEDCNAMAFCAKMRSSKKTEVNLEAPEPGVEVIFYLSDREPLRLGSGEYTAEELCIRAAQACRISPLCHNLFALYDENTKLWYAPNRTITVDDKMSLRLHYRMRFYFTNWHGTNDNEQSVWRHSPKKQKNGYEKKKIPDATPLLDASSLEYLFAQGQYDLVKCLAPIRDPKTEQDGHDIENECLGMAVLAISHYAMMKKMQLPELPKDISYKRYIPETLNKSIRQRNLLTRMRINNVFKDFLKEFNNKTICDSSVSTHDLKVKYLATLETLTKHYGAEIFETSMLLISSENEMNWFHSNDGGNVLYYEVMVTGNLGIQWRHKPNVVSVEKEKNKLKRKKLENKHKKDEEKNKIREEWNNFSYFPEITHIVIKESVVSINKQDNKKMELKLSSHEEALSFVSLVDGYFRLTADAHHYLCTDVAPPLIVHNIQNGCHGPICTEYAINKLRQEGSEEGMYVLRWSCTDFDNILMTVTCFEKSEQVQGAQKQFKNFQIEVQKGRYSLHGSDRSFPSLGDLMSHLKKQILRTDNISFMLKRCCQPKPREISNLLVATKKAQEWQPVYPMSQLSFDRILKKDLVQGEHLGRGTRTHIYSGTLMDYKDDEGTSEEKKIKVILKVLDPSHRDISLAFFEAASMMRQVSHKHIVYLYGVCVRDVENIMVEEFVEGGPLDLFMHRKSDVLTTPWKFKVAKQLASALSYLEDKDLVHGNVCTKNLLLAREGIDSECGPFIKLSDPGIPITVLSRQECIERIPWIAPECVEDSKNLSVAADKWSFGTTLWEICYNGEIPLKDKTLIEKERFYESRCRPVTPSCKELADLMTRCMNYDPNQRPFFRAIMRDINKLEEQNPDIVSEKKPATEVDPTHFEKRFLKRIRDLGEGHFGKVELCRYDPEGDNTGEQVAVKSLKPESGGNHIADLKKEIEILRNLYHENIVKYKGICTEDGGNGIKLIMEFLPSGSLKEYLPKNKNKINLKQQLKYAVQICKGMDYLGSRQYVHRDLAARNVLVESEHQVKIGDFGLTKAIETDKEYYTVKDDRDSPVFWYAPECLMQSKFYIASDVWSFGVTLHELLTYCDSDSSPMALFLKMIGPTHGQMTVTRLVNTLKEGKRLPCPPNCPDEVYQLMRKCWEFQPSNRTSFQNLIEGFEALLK

Row | SMILES | Ki (JAK1) | Ki (Tyk2) | IC50 [1, 2] | Ki (JAK2) | Ki (JAK3) | JAK3 (pKi)-JAK1 (pKi) (JAK3; [3]) | JAK 1 (pKi) (JAK1) | Tyk 2 (pKi) (Tyk2) | Tall-1 (pIC50) [1, 4] | JAK 2 (pKi) (JAK2) | JAK 3 (pKi) (JAK3) | JAK3 (pKi)-JAK1 (pKi) (JAK3; [5]) | Tall-1 (pIC50) [1, 6] | IC50 [1, 7]
1 | C=CC(=O)N1CC[C@H](Oc2nc(-c3ccc(O)c(F)c3)nc3[nH]nc(C)c23)C1 [Compound 1-38] | > 0.1 µM | > 0.1 µM | 0.0316 to 0.2 µM | > 0.1 µM | < 0.0001 µM | A (a value of 3 or above) |  |  |  |  |  |  |  | 
2 | CN(C)C/C=C/C(=O)N1CC(F)(COc2cc(-c3ccc(O)cc3)nc3[nH]ncc23)C1 [Compound 3-89] | > 0.1 µM | > 0.1 µM | 0.0316 to 0.2 µM | > 0.1 µM | < 0.0001 µM | A (a value of 3 or above) |  |  |  |  |  |  |  | 
3 | C=CC(=O)N1CC[C@H](Oc2cc(-c3ccc(O)c(Cl)c3)cc3[nH]nc(C)c23)C1 [Compound 24, (S)-1-(3-((6-(3-chloro-4-hydroxyphenyl)-3-methyl-1H-indazol-4-yl)oxy)pyrrolidin-1-yl)prop-2-en-1-one] | > 0.1 µM | > 0.1 µM | < 0.0316 µM | > 0.1 µM | 0.0001 to 0.001 µM | A (a value of 3 or above) |  |  |  |  |  |  |  | 
4 | C=CC(=O)N1CCC(N(C)c2cc(-c3ccc(O)cc3)cc3[nH]ncc23)CC1 [Compound 7-3] |  |  |  |  |  |  | E (a pKi value of 7 or below (Ki of 100 nM or above)) | E (a pKi value of 7 or below (Ki of 100 nM or above)) | B (a pIC50 value between 6.7 (included) and 7.5 (IC50 between 200 nM and 32 nM)) | E (a pKi value of 7 or below (Ki of 100 nM or above)) | B (a pKi value between 9 and 10 (Ki between 1 nM and 0.1 nM)) | A (a value of 3 or above) |  | 
5 | CN(C)C/C=C/C(=O)N1CCC(C)(Nc2cc(-c3ccc(O)c(F)c3)cc3[nH]ncc23)CC1 [Compound 7-12] |  |  |  |  |  |  | E (a pKi value of 7 or below (Ki of 100 nM or above)) | E (a pKi value of 7 or below (Ki of 100 nM or above)) | B (a pIC50 value between 6.7 (included) and 7.5 (IC50 between 200 nM and 32 nM)) | D (a pKi value between 7 and 8 (Ki between 100 nM and 10 nM)) | B (a pKi value between 9 and 10 (Ki between 1 nM and 0.1 nM)) | A (a value of 3 or above) |  | 
6 | CSC1CCN(C/C=C/C(=O)N2CC(COc3cc(-c4ccc(O)cc4)cc4[nH]ncc34)C2)C1 (stereo not drawn) [Compound 3-125] | > 0.1 µM | > 0.1 µM | 0.0316 to 0.2 µM | > 0.1 µM | 0.0001 to 0.001 µM | A (a value of 3 or above) |  |  |  |  |  |  |  | 
7 | CN(C)C/C=C/C(=O)N1CC(Sc2cc(-c3ccc(O)cc3)cc3[nH]ncc23)C1 [Compound 12-51] |  |  |  |  |  |  | D (a pKi value between 7 and 8 (Ki between 100 nM and 10 nM)) | E (a pKi value of 7 or below (Ki of 100 nM or above)) | B (a pIC50 value between 6.7 (included) and 7.5 (IC50 between 200 nM and 32 nM)) | D (a pKi value between 7 and 8 (Ki between 100 nM and 10 nM)) | A (a pKi value≥10 (Ki≤0.1 nM)) | A (a value of 3 or above) |  | 
8 | C=CC(=O)N1CC(CC)(COc2cc(-c3ccc(O)c(F)c3)nc3[nH]ncc23)C1 [Compound 3-70] |  |  |  |  |  | A (a value of 3 or above) | E (a pKi value of 7 or below (Ki of 100 nM or above)) | E (a pKi value of 7 or below (Ki of 100 nM or above)) |  | E (a pKi value of 7 or below (Ki of 100 nM or above)) | A (a pKi value≥10 (Ki≤0.1 nM)) |  | B (a pIC50 value between 6.7 (included) and 7.5 (IC50 between 200 nM and 32 nM)) | 
9 | C=CC(=O)N1CC[C@H](COc2cc(-c3ccc(O)c(F)c3)cc3[nH]ncc23)C1 [Compound 2-5] |  |  |  |  |  | A (a value of 3 or above) | E (a pKi value of 7 or below (Ki of 100 nM or above)) | E (a pKi value of 7 or below (Ki of 100 nM or above)) |  | D (a pKi value between 7 and 8 (Ki between 100 nM and 10 nM)) | B (a pKi value between 9 and 10 (Ki between 1 nM and 0.1 nM)) |  | B (a pIC50 value between 6.7 (included) and 7.5 (IC50 between 200 nM and 32 nM)) | 
10 | C[C@@H]1C[C@H](Oc2cc(-c3ccc(O)cc3)cc3[nH]ncc23)CCN1C(=O)/C=C/CN(C)C [Compound 12-28] | > 0.1 µM | > 0.1 µM |  | 0.001 to 0.01 µM | < 0.0001 µM |  |  |  |  |  |  | A (a value of 3 or above) |  | 0.0316 to 0.2 µM
11 | C=CC(=O)N1C2CCC1CC(Nc1cc(-c3ccc(O)cc3)cc3[nH]ncc13)C2 (stereo not drawn) [Compound 9-9] |  |  |  |  |  |  | D (a pKi value between 7 and 8 (Ki between 100 nM and 10 nM)) | D (a pKi value between 7 and 8 (Ki between 100 nM and 10 nM)) | A (a pIC50 value≥7.5 (IC50≤32 nM)) | C (a pKi value between 8 and 9 (Ki between 10 nM and 1 nM)) | A (a pKi value≥10 (Ki≤0.1 nM)) | B (a value of 2.3 to 3) |  | 
12 | CC(C)CN(C)C/C=C/C(=O)N1CC(COc2cc(-c3ccc(O)cc3)cc3[nH]ncc23)C1 [Compound 3-118] | > 0.1 µM | > 0.1 µM | < 0.0316 µM | > 0.1 µM | 0.0001 to 0.001 µM | A (a value of 3 or above) |  |  |  |  |  |  |  | 
13 | C=CC(=O)N1CC[C@H](Oc2cc(-c3ccc(O)cc3F)cc3[nH]ncc23)C1 [Compound 1-17] | > 0.1 µM | > 0.1 µM | < 0.0316 µM | 0.01 to 0.1 µM | 0.0001 to 0.001 µM | A (a value of 3 or above) |  |  |  |  |  |  |  | 
14 | C=CC(=O)N1C[C@H](C(=O)Nc2cc(-c3ccc(O)cc3)cc3[nH]ncc23)OC[C@@H]1C [Compound 12-60] | > 0.1 µM | > 0.1 µM |  | > 0.1 µM | 0.0001 to 0.001 µM |  |  |  |  |  |  | A (a value of 3 or above) |  | 0.0316 to 0.2 µM
15 | C=CC(=O)N1CC[C@H](Nc2cc(-c3ccc(O)cc3)cc3[nH]ncc23)[C@H](C)C1 [Compound 12-16] | 0.01 to 0.1 µM | > 0.1 µM |  | 0.001 to 0.01 µM | 0.0001 to 0.001 µM |  |  |  |  |  |  | B (a value of 2.3 to 3) |  | < 0.0316 µM
16 | CN(C)C/C=C/C(=O)N1CC(C#N)(COc2nc(-c3ccc(O)c(Cl)c3)cc3[nH]ncc23)C1 [Compound 3-71] |  |  |  |  |  | A (a value of 3 or above) | E (a pKi value of 7 or below (Ki of 100 nM or above)) | E (a pKi value of 7 or below (Ki of 100 nM or above)) |  | E (a pKi value of 7 or below (Ki of 100 nM or above)) | A (a pKi value≥10 (Ki≤0.1 nM)) |  | A (a pIC50 value≥7.5 (IC50≤32 nM)) | 
17 | CN(C)C/C=C/C(=O)N1CC(COc2nc(-c3ccc(O)c(F)c3)cc3[nH]ncc23)C1 [Compound 3-36] | > 0.1 µM | > 0.1 µM | 0.0316 to 0.2 µM | > 0.1 µM | < 0.0001 µM | A (a value of 3 or above) |  |  |  |  |  |  |  | 
18 | C=CC(=O)N1CC[C@H](Oc2cc(-c3ccc(O)c(F)c3)cc3[nH]nc(SC)c23)C1 [Compound 1-40] | > 0.1 µM | > 0.1 µM | 0.0316 to 0.2 µM | > 0.1 µM | 0.0001 to 0.001 µM | B (a value of 2.3 to 3) |  |  |  |  |  |  |  | 
